Data reported in US20100143886A1, “IN VIVO HCV RESISTANCE TO ANTI-VIRAL INHIBITORS” (priority 2007, published 2010).
“Also recorded” adds a separate entry of the source.

Key:
[1] = test system: HCV genotype 3a; assay: Viral load by commercial RT-TaqMan assay, chimpanzee dosed with Compound A (Example 3); type: in vivo; details: 2 mg per kg IV for 7 days, level of quantitation 20 IU/ml
Method: A chimpanzee infected with a HCV genotype 3a from a human was dosed with Compound A (a N5B polymerase inhibitor) for 7 days at 2 mg per kg IV. Plasma samples were collected prior, during, and after the dosing regimen, with viral load determined by a commercial viral load assay (RT-TaqMan, level of quantitation 20 IU/ml, Cenetron Diagnostics, Austin, Tex. 78758).

[2] = test system: HCV genotype 1a; assay: Viral load by commercial RT-TaqMan assay, chimpanzees dosed with Compound B (Example 1); type: in vivo, chimpanzee; details: two chimpanzees, oral 5 mg per kg b.i.d. for 7 days; level of quantitation 20 IU/ml
Method: Two chimpanzees chronically infected with HCV genotype 1a from a human were orally dosed with Compound B (a NS3 protease inhibitor) for 7 days at 5 mg per kg b.i.d. Plasma samples were collected prior, during, and after the dosing regimen, with viral load determined by a commercial viral load assay (RT-TaqMan, level of quantitation 20 IU/ml, Cenetron Diagnostics, Austin, Tex. 78758).

With C[C@@]1(O)[C@H](O)[C@@H](CO)O[C@H]1n1ccc2c(N)ncnc21 [Compound A] the viral load suppression [1] was “below the limit of quantitation (BLQ); also recorded: below quantifiable levels”.

CC[C@@H]1C[C@]1(NC(=O)[C@@H]1C[C@@H]2CN1C(=O)[C@H](C(C)(C)C)NC(=O)OCC(C)(C)CCCCc1cccc3c1CN(C3)C(=O)O2)C(=O)NS(=O)(=O)C1CC1 [Compound B] was tested, and the viral load suppression [2] was “below quantifiable levels; also recorded: below the limit of quantitation (BLQ)”.
